# Measured values taken from US20230183259A1, “Crystal Form Of Thiofuran Pyridazine Compound, Preparation Method Therefor And Application Thereof” (ZHEJIANG MEDICINE CO., LTD. XINCHANG PHARMACEUTICAL FACTORY, priority 2020, published 2023).
# Tests used:
# long-term stability test = assay type: physicochemical; conditions: 25° C.±2° C., relative humidity 60%±10%
# Method: (§1) Stability tests were performed on the samples of Examples 1, 2, 3, 4 and 5. […] Please refer to the results of the acceleration test (40° C.±2° C., relative humidity 75%±5%) of Table 1 and the results of the long-term stability test (25° C.±2° C., relative humidity 60%±10%) of Table 2.
# [1] = acceleration test (stability); assay type: physicochemical; conditions: 40° C.±2° C., relative humidity 75%±5%
# Method: as §1
substance,measurement,setting,value
"(S)-2-(4-fluorophenyl)-4-(piperidine-3-aminomethyl)thieno[2,3-d]pyridazine-7-carboxamide hydrochloride [Example 110601-1]",Crystal form,long-term stability test; 0 month,unchanged
same,ImpurityB(%),long-term stability test; 0 month,0.00%
same,Content (calculated by dried product )(%),"long-term stability test; 0 month, hydrochloride",99.1%
same,Enantiomers (%),"long-term stability test; 0 month, hydrochloride",0.11%
same,ImpurityA(%),"long-term stability test; 0 month, hydrochloride",0.36%
same,ImpurityC(%),"long-term stability test; 0 month, hydrochloride",0.03%
same,Loss on drying (%),"long-term stability test; 0 month, hydrochloride",7.1%
same,Single largest impurity (%),"long-term stability test; 0 month, hydrochloride",0.02%
same,Total relevant substances (%),"long-term stability test; 0 month, hydrochloride",0.47%
same,appearance,"long-term stability test; 0 month, hydrochloride",yellow crystalline powder
same,Crystal form,long-term stability test; 3 months,unchanged
same,ImpurityB(%),long-term stability test; 3 months,0.00%
same,ImpurityC(%),long-term stability test; 3 months,0.02%
same,Content (calculated by dried product )(%),"long-term stability test; 3 months, hydrochloride",99.9%
same,Enantiomers (%),"long-term stability test; 3 months, hydrochloride",0.11%
same,ImpurityA(%),"long-term stability test; 3 months, hydrochloride",0.35%
same,Loss on drying (%),"long-term stability test; 3 months, hydrochloride",7.0%
same,Single largest impurity (%),"long-term stability test; 3 months, hydrochloride",0.02%
same,Total relevant substances (%),"long-term stability test; 3 months, hydrochloride",0.45%
same,appearance,"long-term stability test; 3 months, hydrochloride",yellow crystalline powder
same,Crystal form,long-term stability test; 6 months,unchanged
same,ImpurityB(%),long-term stability test; 6 months,0.00%
same,Content (calculated by dried product )(%),"long-term stability test; 6 months, hydrochloride",99.8%
same,Enantiomers (%),"long-term stability test; 6 months, hydrochloride",0.08%
same,ImpurityA(%),"long-term stability test; 6 months, hydrochloride",0.34%
same,ImpurityC(%),"long-term stability test; 6 months, hydrochloride",0.03%
same,Loss on drying (%),"long-term stability test; 6 months, hydrochloride",7.0%
same,Single largest impurity (%),"long-term stability test; 6 months, hydrochloride",0.02%
same,Total relevant substances (%),"long-term stability test; 6 months, hydrochloride",0.41%
same,appearance,"long-term stability test; 6 months, hydrochloride",yellow crystalline powder
same,Crystal form,long-term stability test; 9 months,unchanged
same,ImpurityC(%),long-term stability test; 9 months,0.02%
same,Content (calculated by dried product )(%),"long-term stability test; 9 months, hydrochloride",99.8%
same,Enantiomers (%),"long-term stability test; 9 months, hydrochloride",0.08%
same,ImpurityA(%),"long-term stability test; 9 months, hydrochloride",0.34%
same,ImpurityB(%),"long-term stability test; 9 months, hydrochloride",0.02%
same,Loss on drying (%),"long-term stability test; 9 months, hydrochloride",7.0%
same,Single largest impurity (%),"long-term stability test; 9 months, hydrochloride",0.03%
same,Total relevant substances (%),"long-term stability test; 9 months, hydrochloride",0.47%
same,appearance,"long-term stability test; 9 months, hydrochloride",yellow crystalline powder
same,Crystal form,long-term stability test; 12 months,unchanged
same,ImpurityB(%),long-term stability test; 12 months,0.01%
same,Single largest impurity (%),long-term stability test; 12 months,0.02%
same,Content (calculated by dried product )(%),"long-term stability test; 12 months, hydrochloride",99.4%
same,Enantiomers (%),"long-term stability test; 12 months, hydrochloride",0.1%
same,ImpurityA(%),"long-term stability test; 12 months, hydrochloride",0.34%
same,ImpurityC(%),"long-term stability test; 12 months, hydrochloride",0.02%
same,Loss on drying (%),"long-term stability test; 12 months, hydrochloride",7.1%
same,Total relevant substances (%),"long-term stability test; 12 months, hydrochloride",0.43%
same,appearance,"long-term stability test; 12 months, hydrochloride",yellow crystalline powder
same,Crystal form,long-term stability test; 18 months,unchanged
same,ImpurityB(%),long-term stability test; 18 months,0.00%
same,Single largest impurity (%),long-term stability test; 18 months,0.02%
same,Content (calculated by dried product )(%),"long-term stability test; 18 months, hydrochloride",99.5%
same,Enantiomers (%),"long-term stability test; 18 months, hydrochloride",0.07%
same,ImpurityA(%),"long-term stability test; 18 months, hydrochloride",0.37%
same,ImpurityC(%),"long-term stability test; 18 months, hydrochloride",0.04%
same,Loss on drying (%),"long-term stability test; 18 months, hydrochloride",7.0%
same,Total relevant substances (%),"long-term stability test; 18 months, hydrochloride",0.45%
same,appearance,"long-term stability test; 18 months, hydrochloride",yellow crystalline powder
same,Crystal form,long-term stability test; 24 months,unchanged
same,Enantiomers (%),long-term stability test; 24 months,0.08%
same,ImpurityB(%),long-term stability test; 24 months,0.00%
same,ImpurityC(%),long-term stability test; 24 months,0.02%
same,Single largest impurity (%),long-term stability test; 24 months,0.02%
same,Content (calculated by dried product )(%),"long-term stability test; 24 months, hydrochloride",98.3%
same,ImpurityA(%),"long-term stability test; 24 months, hydrochloride",0.37%
same,Loss on drying (%),"long-term stability test; 24 months, hydrochloride",7.4%
same,Total relevant substances (%),"long-term stability test; 24 months, hydrochloride",0.43%
same,appearance,"long-term stability test; 24 months, hydrochloride",yellow crystalline powder
same,Crystal form,long-term stability test; 36 months,unchanged
same,ImpurityC(%),long-term stability test; 36 months,0.02%
same,Single largest impurity (%),long-term stability test; 36 months,0.02%
same,Content (calculated by dried product )(%),"long-term stability test; 36 months, hydrochloride",99.9%
same,Enantiomers (%),"long-term stability test; 36 months, hydrochloride",0.07%
same,ImpurityA(%),"long-term stability test; 36 months, hydrochloride",0.38%
same,ImpurityB(%),"long-term stability test; 36 months, hydrochloride",0.02%
same,Loss on drying (%),"long-term stability test; 36 months, hydrochloride",7.3%
same,Total relevant substances (%),"long-term stability test; 36 months, hydrochloride",0.50%
same,appearance,"long-term stability test; 36 months, hydrochloride",yellow crystalline powder
same,(%) Impurity B (%),[1]; 0 month,0.00%
same,Crystal form,[1]; 0 month,unchanged
same,appearance,[1]; 0 month,yellow crystalline powder
same,Enantiomer (%),"[1]; 0 month, hydrochloride",0.11%
same,Impurity A (%),"[1]; 0 month, hydrochloride",0.36%
same,Impurity C (%),"[1]; 0 month, hydrochloride",0.03%
same,Loss on drying (%),"[1]; 0 month, hydrochloride",7.1%
same,Single largest impurity (%),"[1]; 0 month, hydrochloride",0.02%
same,Total relevant substances (%),"[1]; 0 month, hydrochloride",0.47%
same,content(%),"[1]; 0 month, hydrochloride",99.1%
same,Crystal form,[1]; 1 month,unchanged
same,Impurity C (%),[1]; 1 month,0.02%
same,appearance,[1]; 1 month,yellow crystalline powder
same,(%) Impurity B (%),"[1]; 1 month, hydrochloride",0.00%
same,Enantiomer (%),"[1]; 1 month, hydrochloride",0.13%
same,Impurity A (%),"[1]; 1 month, hydrochloride",0.34%
same,Loss on drying (%),"[1]; 1 month, hydrochloride",7.1%
same,Single largest impurity (%),"[1]; 1 month, hydrochloride",0.02%
same,Total relevant substances (%),"[1]; 1 month, hydrochloride",0.46%
same,content(%),"[1]; 1 month, hydrochloride",100.5%
same,Crystal form,[1]; 2 months,unchanged
same,appearance,[1]; 2 months,yellow crystalline powder
same,(%) Impurity B (%),"[1]; 2 months, hydrochloride",0.00%
same,Enantiomer (%),"[1]; 2 months, hydrochloride",0.11%
same,Impurity A (%),"[1]; 2 months, hydrochloride",0.35%
same,Impurity C (%),"[1]; 2 months, hydrochloride",0.02%
same,Loss on drying (%),"[1]; 2 months, hydrochloride",7.1%
same,Single largest impurity (%),"[1]; 2 months, hydrochloride",0.02%
same,Total relevant substances (%),"[1]; 2 months, hydrochloride",0.44%
same,content(%),"[1]; 2 months, hydrochloride",100.6%
same,(%) Impurity B (%),[1]; 3 months,0.00%
same,Crystal form,[1]; 3 months,unchanged
same,Impurity C (%),[1]; 3 months,0.02%
same,appearance,[1]; 3 months,yellow crystalline powder
same,Enantiomer (%),"[1]; 3 months, hydrochloride",0.1%
same,Impurity A (%),"[1]; 3 months, hydrochloride",0.33%
same,Loss on drying (%),"[1]; 3 months, hydrochloride",7.0%
same,Single largest impurity (%),"[1]; 3 months, hydrochloride",0.03%
same,Total relevant substances (%),"[1]; 3 months, hydrochloride",0.44%
same,content(%),"[1]; 3 months, hydrochloride",99.6%
same,(%) Impurity B (%),[1]; 6 months,0.00%
same,Crystal form,[1]; 6 months,unchanged
same,Impurity C (%),[1]; 6 months,0.02%
same,appearance,[1]; 6 months,yellow crystalline powder
same,Enantiomer (%),"[1]; 6 months, hydrochloride",0.08%
same,Impurity A (%),"[1]; 6 months, hydrochloride",0.30%
same,Loss on drying (%),"[1]; 6 months, hydrochloride",7.0%
same,Single largest impurity (%),"[1]; 6 months, hydrochloride",0.03%
same,Total relevant substances (%),"[1]; 6 months, hydrochloride",0.41%
same,content(%),"[1]; 6 months, hydrochloride",99.6%
